# PMC8840081, “Phenylalanine-Based AMPA Receptor Antagonist as the Anticonvulsant Agent with Neuroprotective Activity—In Vitro and In Vivo Studies” (Molecules, 2022)
# Assays:
# [1] = oxygen radical absorbance capacity fluorescent (ORAC-FL) assay; settings: Trolox equivalent, calculated at 5 µM of compounds and Trolox
# Procedure: The ORAC-FL was performed according to procedure described in the literature. The reagents used in this assay, TX, fluorescein and 2,2′-azobis(2-amidinopropane) dihydrochloride (AAPH), were purchased from Sigma-Aldrich, Inc., St. Louis, MO, USA. The prepared ORAC-FL reagent consisted of 0.3 μM of fluorescein and 100 µM of AAPH dissolved in PBS buffer. The compounds and the reference antioxidant TX were tested at the concentration 2.5 µM and the results were compared to the blank in which no antioxidant was present. The assays were performed in black 96-well plates. The fluorescence readings were taken by a microplate reader EnSpire (PerkinElmer, Waltham, MA, USA) every minute for a duration of 240 min. The excitation wavelength was 485 nm and the emission wavelength was 520 nm. The area under the fluorescence decay curve (AUC) was calculated next by GraphPad Prism™ software (version 5.01, San Diego, CA, USA). All measurements were performed in triplicate. The TX equivalent (TE) was calculated next using the following Equation (1):TE = [(AUCsample − AUCblank)/(AUCTX − AUCblank)] × [CTX/Csample](1)
# [2] = tested on: IMR-32 neuroblastoma cells; test: neuroprotection against 6-OHDA-induced LDH release; format: cell-based, human; settings: IMR-32, compound 50 µM, 1 h pretreatment, 200 µM 6-OHDA, 24 h
# Procedure: (§1) All cell culture protocols and assay conditions were applied as we reported previously. SH-SY5Y (ATCC® CRL-2266™) cell line was purchased from ATCC (Manassas, VA, USA). IMR-32 (ATCC® CCL-127™) cell line was kindly provided by the Department of Oncogenomics, Academisch Medisch Centrum, Amsterdam, Holland. Before each test SH-SY5Y or IMR-32 cells were seeded in 96-well plates with transparent bottom at a concentration of 2.5 × 10^4 cells/well in 100 μL of respective cell culture medium and cultured for 24 h to reach 70% confluence. • Cell Viability
# (§2) CytoTox-ONE™ Homogeneous Membrane Integrity Assay, which based on the LDH release, was purchased from Promega (Madison, WI, USA). SH-SY5Y or IMR-32 cells were seeded in 96-well white plates with transparent bottom. For neuroprotective studies, the cells were preincubated first for 1 h with compound 1, 8 or reference antioxidants AA, TX (all at the concentration of 50 μM) and next the neurotoxin 6-OHDA (Sigma-Aldrich, Inc., St. Louis, MO, USA) was added at final concentration of 50 μM (SH-SY5Y assay) or 200 µM (IMR-32 assay). After 24 h of incubation, the CytoTox-ONE™ was added to each well and the cells were incubated next for 10 min at room temperature. The fluorescence was measured using a microplate reader EnSpire (PerkinElmer, Waltham, MA, USA) with an excitation wavelength of 560 nm and an emission wavelength of 590 nm. All measurements were performed in triplicate and results are shown as mean ± SD. The similar studies were also performed with SH-SY5Y cells injured by 100 μM of 6-OHDA (Figure S1, Supporting Materials). • ROS Assay
# [3] = tested on: SH-SY5Y neuroblastoma cells; test: neuroprotection against 6-OHDA-induced LDH release; format: cell-based, human; settings: compound 50 µM
# Procedure: as §1, §2
smiles,measurement,setting,value
NC(Cc1cc(-c2cc(O)ccc2O)c(Cl)c([N+](=O)[O-])c1)C(=O)O (stereo not shown) [Compound 1],ORAC (TE),[1],3.46 TE
same,6-OHDA-induced release of LDH (neuroprotection),[2],statistically significant decrease
same,6-OHDA-induced release of LDH (neuroprotection),[3]; 100 µM 6-OHDA,neuroprotective effect was not observed
same,6-OHDA-induced release of LDH (neuroprotection),"[3]; 1 h pretreatment, 50 µM 6-OHDA, 24 h",statistically significant decrease
